# Laboratory results as given in patent US6506550B1, “Method of including apoptosis by reducing the level of thiamin” (Brandeis University, priority 1997, dated 2003).
# “Also recorded” adds a separate entry of the source. Read-outs that look alike come from different tables or passages of the source.
# Key:
# rat glioma C6 cells = assay: Induction of apoptosis in rat glioma C6 cells; format: cell-based; conditions: for concentration active in inducing apoptosis: in vitro
# advanced ovarian cancer = conditions: cited from earlier work
# [1] = in vivo; cited from earlier work
# Walker's sarcoma = conditions: rats; cited from earlier work
# [2] = estimated (Woolley and White, 1943); cited from earlier work
# [3] = extremely high doses; cited from earlier work
# [4] = room temperature; cited from earlier work
# [5] = cited from earlier work
# mice = conditions: cited from earlier work
smiles,measurement,setting,value
CCCc1ncc(C[n+]2ccccc2C)c(N)n1 [Amprolium],concentration active in inducing apoptosis,rat glioma C6 cells,≥ 0.6 mM
"Cc1nc(N)cc(Cl)n1 [CMP, 4-Amino-6-chloro-2-methylpyrimidine]",induction of apoptosis by Naegleria agent pretreated with CMP,"rat glioma C6 cells; CMP 2.5, 5, 10 mM, 16 h 25 °C, extract diluted to 10^−5, assay day 6 (FIG. 3)",prevented the induction of apoptosis; also recorded: did not induce apoptosis
N.N.[Cl][Pt][Cl] [cisplatin],survival,advanced ovarian cancer; intraperitoneal injection,49 months
same,survival,advanced ovarian cancer; intravenous injection,41 months
Cc1ncc(C[n+]2csc(CCO)c2C)c(=O)[nH]1 [oxythiamin],passage of the blood-brain barrier,[1],do not pass
same,decrease in growth of Walker's sarcoma,Walker's sarcoma,45%
Cc1ncc(C[n+]2cccc(CCO)c2C)c(N)n1 [pyrithiamin],concentration active in inducing apoptosis,rat glioma C6 cells,≥ 0.01 mM
same,passage of the blood-brain barrier,[1],does
same,molecules required to nullify one molecule of thiamin,[2],about 40 molecules
Cc1ncc(C[n+]2csc(CCO)c2C)c(N)n1 [thiamin],blood level causing respiratory paralysis,[3],≥ 70 mg of thiamin per liter of blood
same,pH at which the methylene bridge is easily cleaved,[4],≥ 9 pH
same,half-life in the body,[5]; in vivo,220 to 432 h
same,oral amount above which thiamin is not absorbed,"[5]; oral, humans, excess excreted in urine and feces",3-10 mg per dose
same,time to improvement after thiamin,mice; mice that could no longer stand upright,one
same,time to no discernible symptoms after thiamin,"mice; mouse, in vivo",≤ 20 h
same,excess thiamin concentration that prevented induction of apoptosis by freshly added agent,"rat glioma C6 cells; Naegleria agent at dilution 10^−5, control medium 199",0.5-2 mg per liter
